Reference: article PMC3086652 (European journal of immunology, 2010)
Ends that are not written are not given here.

Key:
Assay in all cases: biochemical
Type in all cases: binding
HLA A*0201 = HLA A*0201 (Homo sapiens, UniProt P04439, D140Y/D185E/D98H/E176V/E277Q/G131W/G231S/I119V/I121R/I166T/I218V/L300P/L318F/N151K/N90K/P208A/P217A/Q86G/Q94H/R138H/R169H/T345S)
HLA A*6802 = HLA A*6802 (Homo sapiens, UniProt P04439, A269V/D140Y/D185E/E176V/E277Q/E87N/F33Y/G231S/I121R/I166T/I218V/L180W/L300P/L318F/N151K/P208A/P217A/Q86R/R138H/R169H/S129P/T345S/V36M)
HLA A*0203 = HLA A*0203 (Homo sapiens, UniProt P04439, A173T/D140Y/D185E/D98H/E277Q/G131W/G231S/I119V/I121R/I166T/I218V/L180W/L300P/L318F/N151K/N90K/P208A/P217A/Q86G/Q94H/R138H/R169H/T345S)
HLA A*0202 = HLA A*0202 (Homo sapiens, UniProt P04439, D140Y/D185E/D98H/E176V/E277Q/G131W/G231S/I119L/I121R/I166T/I218V/L180W/L300P/L318F/N151K/N90K/P208A/P217A/Q67R/Q86G/Q94H/R138H/R169H/T345S)
HLA A*0206 = HLA A*0206 (Homo sapiens, UniProt P04439, D140Y/D185E/D98H/E176V/E277Q/F33Y/G131W/G231S/I119V/I121R/I166T/I218V/L300P/L318F/N151K/N90K/P208A/P217A/Q86G/Q94H/R138H/R169H/T345S)

CC(C)C[C@H](NC(=O)[C@@H](N)[C@@H](C)O)C(=O)N[C@@H](CC(N)=O)C(=O)N[C@@H](C)C(=O)N[C@@H](Cc1c[nH]c2ccccc12)C(=O)N[C@H](C(=O)N[C@@H](CCCCN)C(=O)N[C@H](C(=O)N[C@H](C(=O)O)C(C)C)C(C)C)C(C)C [TV9, reference compound]
IC50 (HLA A*0201): 0.701 µM | IC50 (HLA A*6802): 23.9 µM | IC50 (HLA A*0203): 0.108 µM | IC50 (HLA A*0202): 0.179 µM | IC50 (HLA A*0206): 1.96 µM

KINAWIKVV [TV9p6]
IC50 (HLA A*0201): 5.12 µM | IC50 (HLA A*6802): > 10 µM | IC50 (HLA A*0203): 0.056 µM | IC50 (HLA A*0202): 2.95 µM | IC50 (HLA A*0206): 13.4 µM

TINAWIKVV [TV9p30]
IC50 (HLA A*0201): 4.23 µM | IC50 (HLA A*6802): 6.22 µM | IC50 (HLA A*0203): 0.112 µM | IC50 (HLA A*0202): 1.83 µM | IC50 (HLA A*0206): 12.6 µM

KINAWIKGV [TV9p5]
IC50 (HLA A*0201): 0.536 µM | IC50 (HLA A*6802): 36.8 µM | IC50 (HLA A*0203): 0.01 µM | IC50 (HLA A*0202): 0.433 µM | IC50 (HLA A*0206): 0.224 µM

TINAWIKGV [TV9p29]
IC50 (HLA A*0201): 1.06 µM | IC50 (HLA A*6802): 0.269 µM | IC50 (HLA A*0203): 0.015 µM | IC50 (HLA A*0202): 0.706 µM | IC50 (HLA A*0206): 2.25 µM
